Our source for the IC50 and Ki values is ChEMBL document CHEMBL1909046, “DrugMatrix in vitro pharmacology data”.

Each structure is given as a SMILES string.

The target of assay [1] is T1, C-X-C chemokine receptor type 1 (Homo sapiens, UniProt P25024). Further: in other assays of this panel Not Active means under 50% inhibition at 10 µM.
T1 sequence (P25024 whole entry): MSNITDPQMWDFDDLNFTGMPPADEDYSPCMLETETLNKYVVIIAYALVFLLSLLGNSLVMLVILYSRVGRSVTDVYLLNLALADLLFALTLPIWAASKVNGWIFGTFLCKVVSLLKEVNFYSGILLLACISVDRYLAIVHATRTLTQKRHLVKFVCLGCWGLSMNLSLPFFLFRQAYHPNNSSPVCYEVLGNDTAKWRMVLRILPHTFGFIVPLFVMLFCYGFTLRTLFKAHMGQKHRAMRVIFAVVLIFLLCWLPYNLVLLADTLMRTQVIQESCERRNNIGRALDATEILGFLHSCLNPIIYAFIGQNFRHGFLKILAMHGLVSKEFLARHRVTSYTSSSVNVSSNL

The next assay concerns the target T2, Androgen receptor (Rattus norvegicus, UniProt P15207). Further: in other assays of this panel Not Active means under 50% inhibition at 10 µM.
T2 sequence (P15207 whole entry): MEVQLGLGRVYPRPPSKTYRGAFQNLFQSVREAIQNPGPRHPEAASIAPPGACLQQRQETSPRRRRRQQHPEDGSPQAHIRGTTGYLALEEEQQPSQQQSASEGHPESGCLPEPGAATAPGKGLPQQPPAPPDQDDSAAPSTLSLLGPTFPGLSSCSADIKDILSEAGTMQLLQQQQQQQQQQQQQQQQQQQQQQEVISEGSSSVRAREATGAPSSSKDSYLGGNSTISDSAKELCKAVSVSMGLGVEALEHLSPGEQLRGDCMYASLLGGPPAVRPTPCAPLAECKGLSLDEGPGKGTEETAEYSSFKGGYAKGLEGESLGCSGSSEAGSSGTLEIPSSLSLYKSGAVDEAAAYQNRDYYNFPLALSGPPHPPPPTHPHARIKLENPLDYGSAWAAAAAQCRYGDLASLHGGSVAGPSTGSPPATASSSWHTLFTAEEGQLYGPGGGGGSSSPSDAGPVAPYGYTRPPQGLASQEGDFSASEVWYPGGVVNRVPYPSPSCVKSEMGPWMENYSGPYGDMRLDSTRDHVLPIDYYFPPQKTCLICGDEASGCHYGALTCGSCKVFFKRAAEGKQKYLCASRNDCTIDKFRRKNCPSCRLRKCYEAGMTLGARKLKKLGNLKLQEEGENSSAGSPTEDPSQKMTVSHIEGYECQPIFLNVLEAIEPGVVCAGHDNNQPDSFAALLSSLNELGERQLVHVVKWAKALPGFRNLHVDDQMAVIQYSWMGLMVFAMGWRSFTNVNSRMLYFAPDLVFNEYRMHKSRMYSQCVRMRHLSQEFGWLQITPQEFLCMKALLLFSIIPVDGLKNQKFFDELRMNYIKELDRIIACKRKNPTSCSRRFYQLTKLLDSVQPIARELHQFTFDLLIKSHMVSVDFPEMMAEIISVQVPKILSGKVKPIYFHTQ

For assay [2], the target named is Sodium-dependent noradrenaline transporter (Homo sapiens, UniProt P23975). Put plainly: DRUGMATRIX: Norepinephrine Transporter radioligand binding (ligand: [125I] RTI-55). The format is cell membranes, MDCK, Membrane. Conditions: Not Active = under 50% inhibition at 10 µM; for Ki: read-out: Ki.
The target in assay [3] is Sigma non-opioid intracellular receptor 1 (Homo sapiens, UniProt Q99720). Put plainly: DRUGMATRIX: Sigma1 radioligand binding (ligand: [3H] Haloperidol). The format is cell membranes, Jurkat, Membrane. The settings on record: Not Active = under 50% inhibition at 10 µM.

What is called IC50 is the concentration needed to halve the response being measured. What is called Ki is a dissociation constant, usually derived from enzyme kinetics or from competition with a known ligand.

Sequence of Sigma non-opioid intracellular receptor 1 (Q99720 whole entry): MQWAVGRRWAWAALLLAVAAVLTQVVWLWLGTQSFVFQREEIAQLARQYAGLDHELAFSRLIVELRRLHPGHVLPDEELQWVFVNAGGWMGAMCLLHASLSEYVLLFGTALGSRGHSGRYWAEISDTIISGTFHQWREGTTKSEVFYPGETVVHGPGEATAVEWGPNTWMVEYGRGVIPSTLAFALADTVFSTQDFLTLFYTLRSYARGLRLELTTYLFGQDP
Sequence of Sodium-dependent noradrenaline transporter (P23975 whole entry): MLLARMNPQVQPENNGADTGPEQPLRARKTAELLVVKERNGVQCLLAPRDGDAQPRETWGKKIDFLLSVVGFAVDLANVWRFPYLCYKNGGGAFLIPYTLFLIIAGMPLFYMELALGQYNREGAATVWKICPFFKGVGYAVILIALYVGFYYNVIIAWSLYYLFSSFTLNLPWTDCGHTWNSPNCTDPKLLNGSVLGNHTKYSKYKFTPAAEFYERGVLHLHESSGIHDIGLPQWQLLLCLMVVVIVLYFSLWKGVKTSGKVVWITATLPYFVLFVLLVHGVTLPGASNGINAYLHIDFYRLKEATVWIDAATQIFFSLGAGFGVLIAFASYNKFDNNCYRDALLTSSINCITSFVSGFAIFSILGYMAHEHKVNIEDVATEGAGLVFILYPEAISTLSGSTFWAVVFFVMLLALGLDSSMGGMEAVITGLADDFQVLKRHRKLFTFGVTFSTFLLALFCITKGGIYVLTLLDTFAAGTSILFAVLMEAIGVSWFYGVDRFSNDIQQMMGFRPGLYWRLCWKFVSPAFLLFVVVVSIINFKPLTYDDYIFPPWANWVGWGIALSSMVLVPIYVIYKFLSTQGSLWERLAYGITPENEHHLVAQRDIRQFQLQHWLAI

`CCOc1nc2cccc(C(=O)O)c2n1Cc1ccc(-c2ccccc2-c2nnn[nH]2)cc1`: the IC50 result is “Not Active” in assay [1], “Not Active” against Androgen receptor, 3070 nM in assay [2] (read-out: IC50) and “Not Active” in assay [3] (jurkat). Further, in assay [2], the Ki was found to be 3040 nM.
Take `O=C(O)CCCc1cccs1`: the IC50 result (in assay [1]; on Androgen receptor; in assay [2] (mdck); in assay [3] (jurkat)) was “Not Active” in each case.
For the compound `NC(=O)c1cccc(N)c1` [3-AMINOBENZAMIDE], the IC50 result (in assay [1]; on Androgen receptor; in assay [2] (mdck); in assay [3] (jurkat)) was “Not Active” each time.
In the case of `CC(=O)Oc1ccccc1C(=O)O` [ASPIRIN], the IC50 entry (in assay [1]; against Androgen receptor; in assay [2] (mdck); in assay [3] (jurkat)) was “Not Active” throughout.
For the compound `CC(=O)OC[C@H]1O[C@@H](n2ncc(=O)[nH]c2=O)[C@H](OC(C)=O)[C@@H]1OC(C)=O` [AZARIBINE], the 50% inhibitory concentration (IC50) result (in assay [1]; against Androgen receptor; in assay [2] (mdck); in assay [3] (jurkat)) was “Not Active” in each case.
Consider `COc1cc(OC)c(C(=O)CCCN2CCCC2)c(OC)c1` [BUFLOMEDIL], for which the IC50 entry (in assay [1]; on Androgen receptor; in assay [2] (mdck)) was “Not Active” in each case.
With `CNC1=Nc2ccc(Cl)cc2C(c2ccccc2)=[N+]([O-])C1` [CHLORDIAZEPOXIDE], the IC50 entry (in assay [1]; at Androgen receptor; in assay [2] (mdck); in assay [3] (jurkat)) was “Not Active” in each case.
Take `CC(C)NCC(O)c1ccccc1Cl` (stereo not given) [CLORPRENALINE]: the IC50 entry (in assay [1]; against Androgen receptor; in assay [2] (mdck); in assay [3] (jurkat)) was “Not Active” throughout.
Take `CC(O)(P(=O)(O)O)P(=O)(O)O` [ETIDRONIC ACID]: the IC50 entry in assay [1], in assay [2] (mdck) and in assay [3] (jurkat) was “Not Active” each time.
Turning to `CC(C)(C(=O)O)c1ccc(C(O)CCCN2CCC(C(O)(c3ccccc3)c3ccccc3)CC2)cc1` (stereo not given) [FEXOFENADINE], the half-inhibitory concentration (IC50) entry in assay [1], in assay [2] (mdck) and in assay [3] (jurkat) was “Not Active” each time.
For the compound `CN1CCN(c2c(F)cc3c(=O)c(C(=O)O)cn(CCF)c3c2F)CC1` [FLEROXACIN], the IC50 entry in assay [1], in assay [2] (mdck) and in assay [3] (jurkat) was “Not Active” each time.
As to `O=c1[nH]c(=O)n([C@H]2C[C@H](O)[C@@H](CO)O2)cc1F` [FLOXURIDINE], the concentration for half-maximal inhibition (IC50) result in assay [1], in assay [2] (mdck) and in assay [3] (jurkat) was “Not Active” each time.
Turning to `COC(=O)Nc1nc2cc(C(=O)c3ccc(F)cc3)ccc2[nH]1` [FLUBENDAZOLE], the IC50 entry (in assay [1]; at Androgen receptor; in assay [2] (mdck); in assay [3] (jurkat)) was “Not Active” throughout.
On to `CC(=O)OCC(=O)[C@@]1(O)CC[C@H]2[C@@H]3CCC4=CC(=O)CC[C@]4(C)[C@@]3(F)[C@@H](O)C[C@@]21C` [FLUDROCORTISONE ACETATE], for which the IC50 entry (in assay [1]; against Androgen receptor; in assay [2] (mdck); in assay [3] (jurkat)) was “Not Active” throughout.
Take `CCOC(=O)c1ncn2c1CN(C)C(=O)c1cc(F)ccc1-2` [FLUMAZENIL]: the IC50 entry (in assay [1]; against Androgen receptor; in assay [2] (mdck); in assay [3] (jurkat)) was “Not Active” each time.
Consider `O=C(O)P(=O)(O)O` [FOSCARNET], for which the 50% inhibitory concentration (IC50) result in assay [1], in assay [2] (mdck) and in assay [3] (jurkat) was “Not Active” each time.
Consider `CCCCC1=NC2(CCCC2)C(=O)N1Cc1ccc(-c2ccccc2-c2nnn[nH]2)cc1` [IRBESARTAN], for which the half-maximal inhibitory concentration (IC50) result in assay [1], in assay [2] (mdck) and in assay [3] (jurkat) was “Not Active” throughout.
Regarding `CN1CCC(=C2c3ccccc3CC(=O)c3sccc32)CC1` [KETOTIFEN], the Ki entry in assay [1] is listed as “Not Active”. For the same compound, the half-maximal inhibitory concentration (IC50) entry in assay [2] (mdck) and in assay [3] (jurkat) was “Not Active” in each case.
Turning to `C[N+](C)(C)C[C@H](O)CC(=O)[O-]` [LEVOCARNITINE], the IC50 entry in assay [1], in assay [2] (mdck) and in assay [3] (jurkat) was “Not Active” throughout.
Take `CCn1cc(C(=O)O)c(=O)c2cc(F)c(N3CCNC(C)C3)c(F)c21` (stereo not given) [LOMEFLOXACIN]: the 50% inhibitory concentration (IC50) entry in assay [1], in assay [2] (mdck) and in assay [3] (jurkat) was “Not Active” throughout.
With `CN1CCCC(CN2c3ccccc3Sc3ccccc32)C1` (stereo not given) [MEPAZINE], the IC50 result is “Not Active” in assay [1], 1880 nM in assay [2] (read-out: IC50) and 180 nM in assay [3] (read-out: IC50). Besides, the Ki was 1860 nM in assay [2] and 76 nM in assay [3] (read-out: Ki).
As to `Cc1cccc(C)c1NC(=O)C1CCCCN1C` (stereo not given) [MEPIVACAINE], the IC50 result in assay [1], in assay [2] (mdck) and in assay [3] (jurkat) was “Not Active” throughout.
In the case of `CN(C)C(=N)NC(=N)N` [METFORMIN], the IC50 entry in assay [1], in assay [2] (mdck) and in assay [3] (jurkat) was “Not Active” throughout.
Consider `CC(C)(C)NCC(O)COc1cccc2c1CC(O)C(O)C2` (stereo not given) [NADOLOL], for which the IC50 result in assay [1], in assay [2] (mdck) and in assay [3] (jurkat) was “Not Active” each time.
For the compound `C[C@]12CC[C@H]3[C@@H](CCC4=CC(=O)CC[C@@H]43)[C@@H]1CC[C@@H]2O` [NANDROLONE], the concentration for half-maximal inhibition (IC50) entry in assay [1], in assay [2] (mdck) and in assay [3] (jurkat) was “Not Active” each time.
With `C[C@@H]1C/C=C/C=C/C=C/C=C/[C@H](O[C@@H]2O[C@H](C)[C@@H](O)[C@H](N)[C@@H]2O)C[C@@H]2O[C@](O)(C[C@@H](O)C[C@H]3O[C@@H]3/C=C/C(=O)O1)C[C@H](O)[C@H]2C(=O)O` [NATAMYCIN], the concentration for half-maximal inhibition (IC50) result in assay [1], in assay [2] (mdck) and in assay [3] (jurkat) was “Not Active” throughout.
Regarding `CN(C)C(=O)Oc1cccc([N+](C)(C)C)c1.[Br-]` [NEOSTIGMINE BROMIDE], the IC50 result in assay [1], in assay [2] (mdck) and in assay [3] (jurkat) was “Not Active” throughout.
For `NC(=O)c1cccnc1` [NIACINAMIDE], the IC50 result in assay [1], in assay [2] (mdck) and in assay [3] (jurkat) was “Not Active” throughout.
For the compound `CS(=O)(=O)Nc1ccc([N+](=O)[O-])cc1Oc1ccccc1` [NIMESULIDE], the IC50 entry in assay [1], in assay [2] (mdck) and in assay [3] (jurkat) was “Not Active” in each case.
`C[C@@H]1O[C@@H](O[C@H]2C[C@@H](O)[C@]3(CO)[C@H]4[C@H](O)C[C@]5(C)[C@@H](C6=CC(=O)OC6)CC[C@]5(O)[C@@H]4CC[C@]3(O)C2)[C@H](O)[C@H](O)[C@H]1O` [OUABAIN]: the IC50 result (in assay [1]; on Androgen receptor; in assay [3] (jurkat)) was “Not Active” in each case.
Turning to `NC(=O)N1c2ccccc2CC(=O)c2ccccc21` [OXCARBAZEPINE], the concentration for half-maximal inhibition (IC50) entry in assay [1], in assay [2] (mdck) and in assay [3] (jurkat) was “Not Active” in each case.
With `COc1ccnc(C[S+]([O-])c2nc3ccc(OC(F)F)cc3[nH]2)c1OC` (stereo not given) [PANTOPRAZOLE], the concentration for half-maximal inhibition (IC50) entry in assay [1], in assay [2] (mdck) and in assay [3] (jurkat) was “Not Active” each time.
`N=C(N)c1ccc(OCCCCCOc2ccc(C(=N)N)cc2)cc1` [PENTAMIDINE]: the half-inhibitory concentration (IC50) entry was “Not Active” in assay [1], 2210 nM in assay [2] (read-out: IC50) and “Not Active” in assay [3] (jurkat). The Ki in assay [2] came to 2200 nM.
On to `CCc1ccc(CCOc2ccc(CC3SC(=O)NC3=O)cc2)nc1` (stereo not given) [PIOGLITAZONE], for which the IC50 result in assay [1], in assay [2] (mdck) and in assay [3] (jurkat) was “Not Active” in each case.
In the case of `CCCNC(C)C(=O)Nc1ccccc1C` (stereo not given) [PRILOCAINE], the IC50 entry in assay [1], in assay [2] (mdck) and in assay [3] (jurkat) was “Not Active” each time.
Turning to `CCN(CC)CCNC(=O)c1ccc(N)cc1` [PROCAINAMIDE], the IC50 result in assay [1], in assay [2] (mdck) and in assay [3] (jurkat) was “Not Active” throughout.
As to `CCN(C(C)=O)c1cccc(-c2ccnc3c(C#N)cnn23)c1` [ZALEPLON], the IC50 result in assay [1], in assay [2] (mdck) and in assay [3] (jurkat) was “Not Active” throughout.
